Reference: patent US4112101A, “N-(Pyridyl)-1H-(or 2H) tetrazole-5-carboxamide derivatives for the prevention of immediate type hypersensitivity reactions” (American Home Products Corporation, priority 1977, dated 1978)
Structures can show the parent of a compound that is named as a salt.

Test system: passive cutaneous anaphylaxis using rat homocytotropic antibody
Test: rat passive cutaneous anaphylaxis test (rat PCA test)
Type: in vivo
Method: The technique employed to establish the anti-allergic activity of the 1H-tetrazole-5-carboxamide derivatives is reported in Immunology, vol. 16, pp. 749-760 (1969) and involves four male Charles River rats (200-250 grams body weight) per group to provide a control, a host for administration of a standard anti-allergic compound (disodium cromoglycate) and animals for the test compound. The rats were injected intracutaneously on their shaved backs with sera from rats immunized with egg albumin and pertussis vaccine. Twenty-four hours after the initial injections, the test compound is administered intraperitoneally or orally at a dosage level of 200 milligrams per kilogram host body weight or less. Five minutes later one milliliter of a 0.5 percent solution of Evans blue dye and 8 milligrams of egg albumin is injected intravenously. After 40 minutes, the animal is sacrificed and the bleb size on its back is measured. The mean bleb size for the animals administered the test compound is calculated and the percent inhibition is determined by comparison with the control animal.
In other words, the compounds of this invention block the release of mediators commonly resulting from the antigen-antibody reaction as exemplified in a passive cutaneous anaphylaxis test (PCA) using rat homocytotropic antibody -- a known correlate of human reaginic antibody.

## O=C(Nc1ccccn1)c1nn[nH]n1 [Example 1, N-(2-Pyridinyl)-1H-tetrazole-5-carboxamide, sodium salt]
Intraperitoneal (i.p.), dose 1.0 mg/kg
  % inhibition: 82.6%
Intraperitoneal (i.p.), dose 10 mg/kg
  % inhibition: 99.0%
Intraperitoneal (i.p.), dose 100 mg/kg
  % inhibition: 72.5%
Intraperitoneal (i.p.), dose .01 mg/kg
  % inhibition: 24.8%
Intraperitoneal (i.p.), dose .1 mg/kg
  % inhibition: 41.9%
Oral (p.o.), dose 1 mg/kg
  % inhibition: 62.6%
Oral (p.o.), dose 10 mg/kg
  % inhibition: 94.8%
Oral (p.o.), dose 100 mg/kg
  % inhibition: 100.0%
Oral (p.o.), dose .01 mg/kg
  % inhibition: 40.4%
Oral (p.o.), dose .1 mg/kg
  % inhibition: 25.1%
